Source: ChEMBL document CHEMBL3120108, “Direct interaction of garcinol and related polyisoprenylated benzophenones of Garcinia cambogia fruits with the transcription factor STAT-1 as a likely mechanism of their inhibitory effect on cytokine signaling pathways” (J Nat Prod, 2014)
Calls of active or inactive are those of the source. No cut-off for these calls is given here.

Key:
INS-1E = assay: Inhibition of TNFalpha-induced NFkappaB activation in rat INS-1E cells assessed as reduction of NFkappaB-DNA binding activity at 25 uM preincubated for 30 mins followed by cytokine challenge measured after 60 mins by electrophoretic mobility shift assay; format: cell-based
MDA-MB-231 [1] = assay: Inhibition of TNFalpha-induced NFkappaB activation in human MDA-MB-231 cells assessed as reduction of NFkappaB-DNA binding activity at 50 uM preincubated for 30 mins followed by cytokine challenge measured after 60 mins by electrophoretic mobility shift assay; format: cell-based
[2] = target: T1, Signal transducer and activator of transcription 1 (Rattus norvegicus) (UniProt Q6P6Q7); assay: Inhibition of INFgamma-induced STAT1 activation in rat INS-1E cells assessed as reduction of STAT1-DNA binding activity at 25 uM preincubated for 30 mins followed by cytokine challenge measured after 60 mins by electrophoretic mobility shift assay; format: cell-based
T1 sequence (whole entry): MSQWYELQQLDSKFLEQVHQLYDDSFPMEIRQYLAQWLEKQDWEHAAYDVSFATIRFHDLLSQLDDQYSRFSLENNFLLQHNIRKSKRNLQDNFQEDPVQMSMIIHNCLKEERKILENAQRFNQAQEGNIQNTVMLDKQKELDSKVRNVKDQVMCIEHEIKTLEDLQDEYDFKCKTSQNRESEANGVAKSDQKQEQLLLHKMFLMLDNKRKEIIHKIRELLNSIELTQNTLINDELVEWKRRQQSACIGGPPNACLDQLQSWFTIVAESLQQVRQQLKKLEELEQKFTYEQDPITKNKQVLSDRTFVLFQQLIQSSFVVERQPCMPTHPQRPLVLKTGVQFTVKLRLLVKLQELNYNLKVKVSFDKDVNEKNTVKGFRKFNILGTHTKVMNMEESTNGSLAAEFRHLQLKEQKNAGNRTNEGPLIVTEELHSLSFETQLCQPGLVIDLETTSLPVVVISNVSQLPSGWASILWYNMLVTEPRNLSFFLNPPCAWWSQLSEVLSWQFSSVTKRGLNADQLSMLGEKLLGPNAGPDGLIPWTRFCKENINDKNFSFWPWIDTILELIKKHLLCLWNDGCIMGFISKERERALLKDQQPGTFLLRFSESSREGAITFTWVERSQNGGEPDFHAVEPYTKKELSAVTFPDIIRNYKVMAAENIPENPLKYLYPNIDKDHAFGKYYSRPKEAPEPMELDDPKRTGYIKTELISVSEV

[3] = target: T2, Signal transducer and activator of transcription 1-alpha/beta (Homo sapiens) (UniProt P42224); assay: Inhibition of INFgamma-induced STAT1 activation in human […] cells assessed as reduction of STAT1-DNA binding activity at 50 uM preincubated for 30 mins followed by cytokine challenge measured after 60 mins by electrophoretic mobility shift assay; format: cell-based
T2 sequence (whole entry): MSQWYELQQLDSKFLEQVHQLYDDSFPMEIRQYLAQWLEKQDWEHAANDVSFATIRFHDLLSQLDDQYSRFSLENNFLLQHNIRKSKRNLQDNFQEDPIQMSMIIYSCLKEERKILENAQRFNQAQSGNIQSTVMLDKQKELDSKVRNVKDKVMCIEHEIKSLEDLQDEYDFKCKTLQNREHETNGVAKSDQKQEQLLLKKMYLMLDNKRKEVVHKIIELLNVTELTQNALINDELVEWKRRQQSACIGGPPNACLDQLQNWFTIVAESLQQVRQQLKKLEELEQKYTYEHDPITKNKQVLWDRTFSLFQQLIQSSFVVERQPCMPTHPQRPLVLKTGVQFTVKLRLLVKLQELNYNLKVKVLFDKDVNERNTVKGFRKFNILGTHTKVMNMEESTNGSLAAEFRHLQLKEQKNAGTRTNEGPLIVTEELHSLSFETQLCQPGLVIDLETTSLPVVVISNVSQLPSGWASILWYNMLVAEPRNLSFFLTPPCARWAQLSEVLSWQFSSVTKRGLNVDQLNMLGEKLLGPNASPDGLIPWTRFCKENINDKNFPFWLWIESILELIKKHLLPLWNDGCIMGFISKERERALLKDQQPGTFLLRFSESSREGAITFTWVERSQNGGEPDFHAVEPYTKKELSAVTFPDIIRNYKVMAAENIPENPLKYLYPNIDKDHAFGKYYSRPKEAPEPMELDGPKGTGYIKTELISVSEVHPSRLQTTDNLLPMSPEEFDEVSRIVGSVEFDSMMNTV

[4] = target: T2, Signal transducer and activator of transcription 1-alpha/beta (Homo sapiens); assay: Inhibition of INFgamma-induced STAT1 activation in human […] cells assessed as reduction of STAT1-DNA binding activity preincubated for 30 mins followed by cytokine challenge measured after 60 mins by electrophoretic mobility shift assay; format: cell-based
[5] = target: T3, Signal transducer and activator of transcription 1-alpha/beta (Homo sapiens, UniProt P42224); assay: Binding affinity to STAT1 (unknown origin) by surface plasmon resonance assay
T3 sequence (P42224 whole entry): T2 sequence (whole entry)

MDA-MB-231 [6] = assay: Inhibition of TNFalpha-induced NFkappaB activation in human MDA-MB-231 cells assessed as reduction of NFkappaB-DNA binding activity preincubated for 30 mins followed by cytokine challenge measured after 60 mins by electrophoretic mobility shift assay; format: cell-based
[7] = target: T2, Signal transducer and activator of transcription 1-alpha/beta (Homo sapiens); assay: Inhibition of INFgamma-induced STAT1 activation in human […] cells assessed as reduction of STAT1-DNA binding activity at 25 uM preincubated for 30 mins followed by cytokine challenge measured after 60 mins by electrophoretic mobility shift assay; format: cell-based
[8] = target: T1, Signal transducer and activator of transcription 1 (Rattus norvegicus); assay: Inhibition of INFgamma-induced STAT1 activation in rat INS-1E cells assessed as reduction of STAT1-DNA binding activity at 10 uM preincubated for 30 mins followed by cytokine challenge measured after 60 mins by electrophoretic mobility shift assay; format: cell-based
[9] = target: T2, Signal transducer and activator of transcription 1-alpha/beta (Homo sapiens); assay: Inhibition of STAT1 in human […] cells assessed as suppression of INFgamma-induced SOCS-1 expression at 25 to 40 uM by Northern blotting technique; format: cell-based

inhibition [2]	inhibition [3]	inhibition [4]	Kd [5] [µM]	inhibition [7]	inhibition [8]	inhibition [9]	SMILES	inhibition (INS-1E)	inhibition (MDA-MB-231 [1])	inhibition (MDA-MB-231 [6])
inactive	Active	Dose-dependent effect	4.67	–	–	–	CC(C)=CCC/C(C)=C/C[C@@]12C[C@H](CC=C(C)C)C(C)(C)[C@@](CC=C(C)C)(C(=O)C(C(=O)c3ccc(O)c(O)c3)=C1O)C2=O	inactive	inactive	–
Active	–	Dose-dependent effect	16.9	Active	–	–	C=C(C)[C@@H](CC=C(C)C)C[C@@]12C[C@@H](CC=C(C)C)C(C)(C)[C@@](CC=C(C)C)(C(=O)C(C(=O)c3ccc(O)c(O)c3)=C1O)C2=O [GARCINOL]	Active	Active	Dose-dependent effect
Active	Active	Dose-dependent effect	20.6	–	Active	Active	CC(C)=CCC[C@@]1(C)[C@H](CC=C(C)C)C[C@]2(CC=C(C)C)C(=O)[C@@]1(CC=C(C)C)C(=O)C(C(=O)c1ccc(O)c(O)c1)=C2O [GUTTIFERONE K]	–	–	–

SMILES	inhibition [2]	inhibition [3]	inhibition [4]	Kd [5] [µM]	inhibition [7]	inhibition [8]	inhibition [9]	inhibition (INS-1E)	inhibition (MDA-MB-231 [1])	inhibition (MDA-MB-231 [6])
O=C(O[C@@H]1Cc2c(O)cc(O)cc2O[C@@H]1c1cc(O)c(O)c(O)c1)c1cc(O)c(O)c(O)c1 [EPIGALOCATECHIN GALLATE]	–	–	–	0.7	–	–	–	–	–	–
